What all share (experiment): Protein kinase inhibition assay
One assay deals with CDK6/cyclinD3(h) (Homo sapiens, UniProt Q00534). In kind it is biochemical. The settings on record: read-out: percent residual activity of CDK6/cyclinD3(h). On the procedure:
(§1) Certain compounds were tested for activity in protein kinase inhibition assays. All substrates were dissolved and diluted to working stocks in de-ionized water, apart from histone H1 (10× working stock in 20 mM MOPS pH 7.0), PDKtide (10× working stock in 50 mM Tris pH 7.0) ATF2 (which is typically stored at a 20× working stock in 50 mM Tris pH 7.5, 150 mM NaCl, 0.1 mM EGTA, 0.03% Brij-35, 50% glycerol, 1 mM benzamidine, 0.2 mM PMSF and 0.1% R-mercaptoethanol), KKLNRTLSFAEPG (SEQ ID NO:203) and RRRLSFAEPG (SEQ ID NO:204) (50 mM HEPES pH 7.4) and GGEEEEYFELVKKKK (SEQ ID NO:205) (20 mM MOPS pH 7.0). All kinases were pre-diluted to a 10× working concentration prior to addition into the assay. The composition of the dilution buffer for each kinase is detailed below.
(§2) In a final reaction volume of 25 μl, CDK6/cyclinD3 (h) (5-10 mU) is incubated with 8 mM MOPS pH 7.0, 0.2 mM EDTA, 0.1 mg/ml histone H1, 10 mM MgAcetate and [gamma-33P-ATP] (specific activity approx. 500 cpm/pmol, concentration as required). The reaction is initiated by the addition of the MGATP mix. After incubation for 40 minutes at room temperature, the reaction is stopped by the addition of 5 μl of a 3% phosphoric acid solution. 10 μl of the reaction is then spotted onto a P30 filtermat and washed three times for 5 minutes in 75 mM phosphoric acid and once in methanol prior to drying and scintillation counting.

A further assay has as its system c-RAF(h). In kind it is biochemical, human. The following applies: 2.5 μM. On the procedure: as §1
(§3) In a final reaction volume of 25 μl, c-RAF (h) (5-10 mU) is incubated with 25 mM Tris pH 7.5, 0.02 mM EGTA, 0.66 mg/ml myelin basic protein, 10 mM MgAcetate and [gamma-33P-ATP] (specific activity approx. 500 cpm/pmol, concentration as required). The reaction is initiated by the addition of the MgATP mix. After incubation for 40 minutes at room temperature, the reaction is stopped by the addition of 5 μl of a 3% phosphoric acid solution. 10 μl of the reaction is then spotted onto a P30 filtermat and washed three times for 5 minutes in 75 mM phosphoric acid and once in methanol prior to drying and scintillation counting.

For the next assay, the target named is FGFR3(h) (Homo sapiens, UniProt P22607). In kind it is biochemical. The following applies: read-out: percent residual activity of FGFR3(h). On the procedure: as §1
as §2, with “FGFR3” for “CDK6/cyclinD3”, “poly(Glu, Tyr) 4:1, 10 mM MnCl2,” for “histone H1,”, “[y-33P-ATP]” for “[gamma-33P-ATP]”, “MgATP” for “MGATP”, “Filtermat A” for “P30 filtermat”

The next assay has as its target GSK3β(h) (Homo sapiens, UniProt P49841). In kind it is biochemical. The following applies: read-out: percent residual activity of GSK3β(h). On the procedure: as §1
In a final reaction volume of 25 μl, GSK3β (h) (5-10 mU) is incubated with 8 mM MOPS pH 7.0, 0.2 mM EDTA, 20 μM […](p)EDEEE (SEQ ID NO:221) (phospho GS2 peptide), 10 mM MgAcetate and [gamma-33P-ATP] (specific activity approx. 500 cpm/pmol, concentration as required). The reaction is initiated by the addition of the MgATP mix. After incubation for 40 minutes at room temperature, the reaction is stopped by the addition of 5 μl of a 3% phosphoric acid solution. […]

Another assay addresses NEK7(h) (Homo sapiens, UniProt Q8TDX7). In kind it is biochemical. The following applies: read-out: percent residual activity of NEK7(h). On the procedure: as §1
as §2, with “μl, NEK7” for “μl, CDK6/cyclinD3”, “EDTA, 300 μM FLAKSFGSPNRAYKK (SEQ ID NO:221),” for “EDTA, 0.1 mg/ml histone H1,”, “the MgATP” for “the MGATP”, “10 pi” for “10 μl”

The next assay has as its target SAPK2b(h) (Homo sapiens, UniProt Q15759). In kind it is biochemical. The following applies: read-out: percent residual activity of SAPK2b(h). On the procedure:
as §1
as §3, with “SAPK2b” for “c-RAF”, “0.33” for “0.66”

SMILES strings stand for the structures.

Sequence of SAPK2b(h) (Q15759 whole entry): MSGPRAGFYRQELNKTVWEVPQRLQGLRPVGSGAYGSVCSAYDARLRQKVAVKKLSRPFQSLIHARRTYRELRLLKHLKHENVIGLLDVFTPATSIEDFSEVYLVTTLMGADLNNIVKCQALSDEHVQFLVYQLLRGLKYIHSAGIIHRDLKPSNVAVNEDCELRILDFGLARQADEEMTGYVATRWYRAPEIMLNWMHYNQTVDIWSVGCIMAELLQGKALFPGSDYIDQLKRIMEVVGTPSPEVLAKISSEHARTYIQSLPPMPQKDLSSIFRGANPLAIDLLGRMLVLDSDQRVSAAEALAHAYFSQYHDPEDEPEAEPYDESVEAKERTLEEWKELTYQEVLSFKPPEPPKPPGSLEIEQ
Sequence of GSK3β(h) (P49841 whole entry): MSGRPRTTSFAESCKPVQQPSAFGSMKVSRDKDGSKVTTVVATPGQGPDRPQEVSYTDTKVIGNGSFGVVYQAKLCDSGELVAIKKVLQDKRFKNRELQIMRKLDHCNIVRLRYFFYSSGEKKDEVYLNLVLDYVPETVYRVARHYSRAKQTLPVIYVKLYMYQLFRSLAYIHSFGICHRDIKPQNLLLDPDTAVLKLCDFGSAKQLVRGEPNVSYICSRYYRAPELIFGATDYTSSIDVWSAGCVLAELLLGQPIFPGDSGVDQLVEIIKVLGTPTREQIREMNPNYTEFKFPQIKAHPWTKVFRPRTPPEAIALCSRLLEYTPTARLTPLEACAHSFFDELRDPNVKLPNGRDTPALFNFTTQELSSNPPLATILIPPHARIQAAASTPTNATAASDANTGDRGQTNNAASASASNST
Sequence of CDK6/cyclinD3(h) (Q00534 whole entry): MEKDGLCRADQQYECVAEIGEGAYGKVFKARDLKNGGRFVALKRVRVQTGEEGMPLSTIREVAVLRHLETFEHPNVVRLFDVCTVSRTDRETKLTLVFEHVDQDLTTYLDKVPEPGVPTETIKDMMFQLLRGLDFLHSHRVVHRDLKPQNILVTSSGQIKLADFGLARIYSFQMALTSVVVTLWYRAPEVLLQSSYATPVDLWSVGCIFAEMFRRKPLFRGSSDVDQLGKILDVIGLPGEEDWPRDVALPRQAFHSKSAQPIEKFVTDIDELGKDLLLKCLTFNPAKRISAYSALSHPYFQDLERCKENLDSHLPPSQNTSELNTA
Sequence of CDK6/cyclinD3(h) (P30281 whole entry partner): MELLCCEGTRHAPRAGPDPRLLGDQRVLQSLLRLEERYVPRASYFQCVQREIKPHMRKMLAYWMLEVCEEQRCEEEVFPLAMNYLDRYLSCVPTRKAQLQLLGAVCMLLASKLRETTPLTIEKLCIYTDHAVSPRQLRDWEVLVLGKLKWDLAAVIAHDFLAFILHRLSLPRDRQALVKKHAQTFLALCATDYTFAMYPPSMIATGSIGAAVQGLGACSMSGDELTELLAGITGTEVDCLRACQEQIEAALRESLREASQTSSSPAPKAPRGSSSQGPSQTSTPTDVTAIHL
Sequence of NEK7(h) (Q8TDX7 whole entry): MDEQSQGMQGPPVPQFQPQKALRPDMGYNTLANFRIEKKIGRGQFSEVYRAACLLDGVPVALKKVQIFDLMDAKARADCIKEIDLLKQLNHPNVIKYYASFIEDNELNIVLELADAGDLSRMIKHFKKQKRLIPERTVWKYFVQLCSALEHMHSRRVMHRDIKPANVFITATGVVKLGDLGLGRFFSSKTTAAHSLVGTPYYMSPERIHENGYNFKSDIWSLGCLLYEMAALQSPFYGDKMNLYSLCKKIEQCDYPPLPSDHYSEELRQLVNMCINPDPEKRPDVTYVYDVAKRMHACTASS
Sequence of FGFR3(h) (P22607 23-806): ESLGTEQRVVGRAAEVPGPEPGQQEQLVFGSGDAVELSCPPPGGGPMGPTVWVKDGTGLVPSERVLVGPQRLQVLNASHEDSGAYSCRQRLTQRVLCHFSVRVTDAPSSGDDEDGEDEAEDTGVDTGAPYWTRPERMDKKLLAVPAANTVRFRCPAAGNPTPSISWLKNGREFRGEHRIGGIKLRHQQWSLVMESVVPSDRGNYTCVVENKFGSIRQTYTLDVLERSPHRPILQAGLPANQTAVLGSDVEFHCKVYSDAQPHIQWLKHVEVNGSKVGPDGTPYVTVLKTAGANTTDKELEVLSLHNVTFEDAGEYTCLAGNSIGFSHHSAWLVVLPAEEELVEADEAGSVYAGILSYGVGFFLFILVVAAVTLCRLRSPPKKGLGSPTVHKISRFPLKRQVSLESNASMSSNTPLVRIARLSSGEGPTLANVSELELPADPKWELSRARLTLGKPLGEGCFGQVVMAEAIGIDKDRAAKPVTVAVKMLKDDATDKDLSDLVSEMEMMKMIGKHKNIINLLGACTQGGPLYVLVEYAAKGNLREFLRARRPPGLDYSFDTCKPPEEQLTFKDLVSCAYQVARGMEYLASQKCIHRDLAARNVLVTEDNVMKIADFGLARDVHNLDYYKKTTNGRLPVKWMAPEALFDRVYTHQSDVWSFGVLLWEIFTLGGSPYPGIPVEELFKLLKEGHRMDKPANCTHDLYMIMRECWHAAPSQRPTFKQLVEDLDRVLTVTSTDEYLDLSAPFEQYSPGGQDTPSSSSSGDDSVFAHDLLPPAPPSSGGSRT

As for `CN1CCCC1CCNC(=O)c1cn2c3c(c(N4CCC(c5cnccn5)C4)c(F)cc3c1=O)Oc1cc3ccccc3cc1-2` (stereo not drawn) [Compound A-1], the remaining activity at 2.5 µM at CDK6/cyclinD3(h) stood at 85%; on FGFR3(h) it was 101%; on GSK3β(h), 135%; on NEK7(h), 102%; on SAPK2b(h), 70%. Also, in the assay on c-RAF(h), the “percent residual activity of c-RAF(h)” value amounted to 100%.

On to `CC(=O)N1CCN(c2ccc3c(=O)c(C(=O)NCCN4CCCC4)c4n(C)c5ccccc5n4c3n2)CC1` [Compound B-1], for which the remaining activity at 2.5 µM on CDK6/cyclinD3(h) is 100%; at FGFR3(h), 116%; at GSK3β(h) it was 76%; on NEK7(h) it was 101%; on SAPK2b(h), 94%. Besides, in the assay on c-RAF(h), the “percent residual activity of c-RAF(h)” value came out at 96%.

The values are drawn from patent publication US20070117770A1, “Human ribosomal DNA (rDNA) and ribosomal RNA (rRNA) nucleic acids and uses thereof” (Cylene Pharmaceuticals, Inc., priority 2005, published 2007).
